Assay results published in US20240238425A1, “HSD17B13 Inhibitors and/or Degraders” (Pfizer Inc., priority 2022, published 2024).
Where a name gives a salt, the structure may show the parent alone.

Tested on: HiBiT-HSD17β13 fusion protein (N-terminal HiBiT-tagged HSD17β13 isoform D) in Huh7 HiBiT-HSD17β13 OE cells
Experiment: Whole-cell Huh7-HSD17B13 HiBiT assay (degrader potency and maximal efficacy, luminescence readout)
Type: cell-based, human
Conditions: 24 hour incubation, geometric mean, * = geometric mean for all forms tested (parent and salt forms); for DC50: read-out: Huh7_HIBIT-HSD17β13_DC50 GMean DC50; for Huh7_HIBIT-HSD17β13_DC50 GMean Asymptote Maximum: max. concentration 1 μM
How it was run: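 Huh7 cells stably overexpressing N-terminal HiBiT-tagged HSD17β13 isoform D, clone matched to primary hepatocyte expression, were exposed to an 11-point, 1 in 3.162 dilution series (top 1 μM final) for 24 h at 37° C. Lytic HiBiT luminescence was normalised to DMSO and parental-cell controls; DC50 from four-parameter logistic fit, with CellTiter-Glo counter screen.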

O=C1CCN(c2cnn3cc(CCCN4CCN(c5ccc6cn([C@]78CC[C@](CNC(=O)c9cc(F)c(O)c(F)c9F)(CC7)CC8)nc6c5)CC4)ccc23)C(=O)N1 [Example 97, N-({4-[6-(4-{3-[3-(2,4-dioxo-1,3-diazinan-1-yl)pyrazolo[1,5-a]pyridin-6-yl]propyl}piperazin-1-yl)-2H-indazol-2-yl]bicyclo[2.2.2]octan-1-yl}methyl)-2,3,5-trifluoro-4-hydroxybenzamide, trifluoroacetate salt]
DC50: 2.4 nM
Huh7_HIBIT-HSD17β13_DC50 GMean Asymptote Maximum: 76%

O=C1CCN(c2cnn3cc(CCCN4CCN(c5ncc(-c6ccn7cc([C@]89CC[C@](CNC(=O)c%10cc(F)c(O)c(F)c%10F)(CC8)CC9)nc7c6)cn5)CC4)ccc23)C(=O)N1 [Example 99, N-[(4-{7-[2-(4-{3-[3-(2,4-dioxo-1,3-diazinan-1-yl)pyrazolo[1,5-a]pyridin-6-yl]propyl}piperazin-1-yl)pyrimidin-5-yl]imidazo[1,2-a]pyridin-2-yl}bicyclo[2.2.2]octan-1-yl)methyl]-2,3,5-trifluoro-4-hydroxybenzamide, formate salt]
DC50: 1.7 nM
Huh7_HIBIT-HSD17β13_DC50 GMean Asymptote Maximum: 70%

Cc1ccc(C(=O)N2CCC3(CCC(CN4CCN(c5ccc6cn([C@H]7CC[C@H](CNC(=O)c8cc(F)c(O)c(F)c8F)CC7)nc6c5)CC4)CC3)CC2)cc1N1CCC(=O)NC1=O [Example 103, N-{[(1r,4r)-4-{6-[4-({3-[3-(2,4-dioxo-1,3-diazinan-1-yl)-4-methylbenzoyl]-3-azaspiro[5.5]undecan-9-yl}methyl)piperazin-1-yl]-2H-indazol-2-yl}cyclohexyl]methyl}-2,3,5-trifluoro-4-hydroxybenzamide, trifluoroacetate salt]
DC50: 1.2 nM
Huh7_HIBIT-HSD17β13_DC50 GMean Asymptote Maximum: 76%

Cc1ccc(C(=O)N2CCC3(CCC(N4CCN(c5ccc6cn([C@H]7CC[C@H](CNC(=O)c8cc(F)c(O)c(F)c8F)CC7)nc6c5)CC4)CC3)C2)cc1N1CCC(=O)NC1=O (stereo partly drawn) [Example 104, N-({(1r,4r)-4-[6-(4-{2-[3-(2,4-dioxo-1,3-diazinan-1-yl)-4-methylbenzoyl]-2-azaspiro[4.5]decan-8-yl}piperazin-1-yl)-2H-indazol-2-yl]cyclohexyl}methyl)-2,3,5-trifluoro-4-hydroxybenzamide, trifluoroacetate salt]
DC50: 3.6 nM
Huh7_HIBIT-HSD17β13_DC50 GMean Asymptote Maximum: 78%

O=C(O)C(F)(F)F.O=C1CCN(c2cnn3cc(CCCN4CCN(c5ncc(-c6ccc7cn(C89CCC(CNC(=O)c%10cc(F)c(O)c(F)c%10F)(CC8)CC9)nc7c6)cn5)CC4)ccc23)C(=O)N1 [Example 105, N-[(4-{6-[2-(4-{3-[3-(2,4-dioxo-1,3-diazinan-1-yl)pyrazolo[1,5-a]pyridin-6-yl]propyl}piperazin-1-yl)pyrimidin-5-yl]-2H-indazol-2-yl}bicyclo[2.2.2]octan-1-yl)methyl]-2,3,5-trifluoro-4-hydroxybenzamide, trifluoroacetate salt]
DC50: 1.3 nM
Huh7_HIBIT-HSD17β13_DC50 GMean Asymptote Maximum: 76%

O=C1CCN(c2cc(C(=O)N3CCN(CC4CCN(c5ncc(-c6ccc7cn([C@H]8CC[C@H](CNC(=O)c9cc(F)c(O)c(F)c9F)CC8)nc7c6)cn5)CC4)CC3)ccc2Cl)C(=O)N1 [Example 108, N-{[(1r,4r)-4-(6-{2-[4-({4-[4-chloro-3-(2,4-dioxo-1,3-diazinan-1-yl)benzoyl]piperazin-1-yl}methyl)piperidin-1-yl]pyrimidin-5-yl}-2H-indazol-2-yl)cyclohexyl]methyl}-2,3,5-trifluoro-4-hydroxybenzamide]
DC50: 1.3 nM
Huh7_HIBIT-HSD17β13_DC50 GMean Asymptote Maximum: 80%

Cc1ccc(C(=O)N2CCC3(CCC(N4CCN(c5ccc6cn([C@H]7CC[C@H](CNC(=O)c8cc(F)c(O)c(F)c8)CC7)nc6c5)CC4)CC3)CC2)cc1N1CCC(=O)NC1=O [Example 109, N-({(1r,4r)-4-[6-(4-{3-[3-(2,4-dioxo-1,3-diazinan-1-yl)-4-methylbenzoyl]-3-azaspiro[5.5]undecan-9-yl}piperazin-1-yl)-2H-indazol-2-yl]cyclohexyl}methyl)-3,5-difluoro-4-hydroxybenzamide]
DC50: 1.1 nM
Huh7_HIBIT-HSD17β13_DC50 GMean Asymptote Maximum: 81%

O=C1CCN(c2cc(C(=O)N3CCC4(CCC(N5CCN(c6ccc7cn([C@H]8CC[C@H](CNC(=O)c9cc(F)c(O)c(F)c9)CC8)nc7c6)CC5)CC4)CC3)ccc2Cl)C(=O)N1 [Example 110, N-({(1r,4r)-4-[6-(4-{3-[4-chloro-3-(2,4-dioxo-1,3-diazinan-1-yl)benzoyl]-3-azaspiro[5.5]undecan-9-yl}piperazin-1-yl)-2H-indazol-2-yl]cyclohexyl}methyl)-3,5-difluoro-4-hydroxybenzamide]
DC50: 2.9 nM
Huh7_HIBIT-HSD17β13_DC50 GMean Asymptote Maximum: 77%

Cc1ccc(C(=O)N2CCC3(CCC(N4CCN(c5ccc6cn([C@H]7CC[C@H](CNC(=O)c8cc(F)c(O)c(F)c8F)CC7)nc6c5)CC4)CC3)CC2)cc1N1CCC(=O)NC1=O [Example 111, N-({(1r,4r)-4-[6-(4-{3-[3-(2,4-dioxo-1,3-diazinan-1-yl)-4-methylbenzoyl]-3-azaspiro[5.5]undecan-9-yl}piperazin-1-yl)-2H-indazol-2-yl]cyclohexyl}methyl)-2,3,5-trifluoro-4-hydroxybenzamide, trifluoroacetate salt]
DC50: 0.85 nM
Huh7_HIBIT-HSD17β13_DC50 GMean Asymptote Maximum: 80%

Cc1ccc(C(=O)N2CCC3(CCC(n4cc(-c5ccc6cn([C@H]7CC[C@H](CNC(=O)c8cc(F)c(O)c(F)c8F)CC7)nc6c5)cn4)CC3)CC2)cc1N1CCC(=O)NC1=O [Example 112, N-({(1r,4r)-4-[6-(1-{3-[3-(2,4-dioxo-1,3-diazinan-1-yl)-4-methylbenzoyl]-3-azaspiro[5.5]undecan-9-yl}-1H-pyrazol-4-yl)-2H-indazol-2-yl]cyclohexyl}methyl)-2,3,5-trifluoro-4-hydroxybenzamide, formate salt]
DC50: 0.97 nM
Huh7_HIBIT-HSD17β13_DC50 GMean Asymptote Maximum: 81%

Cc1ccc(C(=O)N2CCC3(CCC(N4CCN(c5ccc6cn([C@H]7CC[C@H](CNC(=O)c8cc(F)c(O)c(F)c8F)CC7)nc6c5)CC4)C3)CC2)cc1N1CCC(=O)NC1=O (stereo partly drawn) [Example 113, N-({(1r,4r)-4-[6-(4-{8-[3-(2,4-dioxo-1,3-diazinan-1-yl)-4-methylbenzoyl]-8-azaspiro[4.5]decan-2-yl}piperazin-1-yl)-2H-indazol-2-yl]cyclohexyl}methyl)-2,3,5-trifluoro-4-hydroxybenzamide, formate salt]
DC50: 1.4 nM
Huh7_HIBIT-HSD17β13_DC50 GMean Asymptote Maximum: 79%

Cc1ccc(C(=O)N2CCC(CN3CCN(c4ncc(-c5ccc6cn(C78CCC(CNC(=O)c9cc(F)c(O)c(F)c9F)(CC7)CC8)nc6c5)cn4)CC3)CC2)cc1N1CCC(=O)NC1=O [Example 114, N-{[4-(6-{2-[4-({1-[3-(2,4-dioxo-1,3-diazinan-1-yl)-4-methylbenzoyl]piperidin-4-yl}methyl)piperazin-1-yl]pyrimidin-5-yl}-2H-indazol-2-yl)bicyclo[2.2.2]octan-1-yl]methyl}-2,3,5-trifluoro-4-hydroxybenzamide]
DC50: 2.6 nM
Huh7_HIBIT-HSD17β13_DC50 GMean Asymptote Maximum: 77%
